From ChEMBL document CHEMBL2331547, “o-Benzenedisulfonimido-sulfonamides are potent inhibitors of the tumor-associated carbonic anhydrase isoforms CA IX and CA XII” (Bioorg Med Chem, 2013)

What follows are molecules tested against Carbonic anhydrase 9 (Homo sapiens, UniProt Q16790) (assay: Inhibition of human recombinant carbonic anhydrase-9-mediated CO2 hydration preincubated for 10 mins by stopped-flow assay).

| Structure (SMILES) | Ki |
| --- | --- |
| NS(=O)(=O)c1ccc(CCN2S(=O)(=O)c3ccccc3S2(=O)=O)cc1 | 86 nM |
| NS(=O)(=O)c1ccccc1N1S(=O)(=O)c2ccccc2S1(=O)=O | 66.9 nM |
| NS(=O)(=O)c1ccc(N2S(=O)(=O)c3ccccc3S2(=O)=O)cc1 | 82.5 nM |
| NS(=O)(=O)c1cccc(N2S(=O)(=O)c3ccccc3S2(=O)=O)c1 | 32.2 nM |
| NS(=O)(=O)c1ccc(CN2S(=O)(=O)c3ccccc3S2(=O)=O)cc1 | 49.8 nM |
| NS(=O)(=O)c1ccc(N2S(=O)(=O)c3ccccc3S2(=O)=O)c(Cl)c1 | 17.1 nM |
